Assay results: patent US7915268B2, “8-substituted 2-(benzimidazolyl)purine derivatives for immunosuppression” (Wyeth LLC, priority 2006, dated 2011)

Each compound was assayed against T1, Jak3 (Homo sapiens, UniProt P52333) (assay: Jak3 Kinase Assay (HTRF, GST-Jak3 catalytic domain)). Details: 1 μM ATP, 60-min incubation, read-out: Jak 3 (Converted).
T1 construct: catalytic domain of Jak3 (508aa to 1124aa); made in house; host or cells: Sf9 insect cells (baculovirus, pFastBac 1)
T1 sequence (P52333 508-1124): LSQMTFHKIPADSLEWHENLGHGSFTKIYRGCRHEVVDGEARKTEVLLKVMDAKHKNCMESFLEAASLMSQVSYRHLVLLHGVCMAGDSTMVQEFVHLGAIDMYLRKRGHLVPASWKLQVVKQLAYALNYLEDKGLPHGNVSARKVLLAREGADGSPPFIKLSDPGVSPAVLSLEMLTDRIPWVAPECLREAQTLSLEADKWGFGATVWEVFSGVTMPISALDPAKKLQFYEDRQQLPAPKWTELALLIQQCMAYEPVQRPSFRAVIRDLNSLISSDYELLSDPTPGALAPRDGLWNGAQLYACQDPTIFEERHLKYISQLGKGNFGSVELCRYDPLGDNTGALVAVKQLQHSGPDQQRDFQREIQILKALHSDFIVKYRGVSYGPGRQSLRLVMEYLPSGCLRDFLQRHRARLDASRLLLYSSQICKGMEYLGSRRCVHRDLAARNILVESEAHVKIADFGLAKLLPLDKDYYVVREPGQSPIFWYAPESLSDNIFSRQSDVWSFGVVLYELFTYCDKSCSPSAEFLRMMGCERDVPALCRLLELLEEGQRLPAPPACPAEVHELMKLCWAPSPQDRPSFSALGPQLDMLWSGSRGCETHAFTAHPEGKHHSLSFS
Type: biochemical
Description: Human Jak3 cDNA was amplified by PCR. A fragment encoding the catalytic domain of Jak3 (508aa to 1124aa) was ligated with GST at 5′ end. This fused GST-Jak3 DNA fragment was cloned into the EcoRI site of the donor plasmid pFastBac 1 (Life Technologies #10359-016). The transformation, transposition, and transfection of insect cells (Sf9) were performed according to the manufacture's instructions. The cell lysate containing recombinant GST-Jak3 was used in the kinase assay. Anti-GST antibody (10 μg/ml, Sigma #G1417) was coated onto a 384-well plate at 4° C. overnight. Cell lysate containing GST-Jak3 (1:100 dilution) was added to the anti-GST coated plates, and GST-Jak3 was captured by immobilized anti-GST antibody. Testing compounds and substrate mix (50 mM HEPES, pH 7, 0.5 mM Na3VO4, 25 mM MgCl2, 1 mM DTT, 0.005% BSA, 1 μM ATP, and 4.5 μg/ml biotinyl poly-Glu, Ala, Tyr) were added to the plate to initiate the reaction. After a 60-min incubation, the reaction was stopped by 4 mM EDTA, and phosphorylation of biotinyl poly-Glu, Ala, Tyr was detected using 17 μg/ml Cy5-streptavidin (Amersham, #PA92005) and 2.7 μg/ml Europium-conjugated anti-phosphotyrosine antibody (PerkinElmer #AD0069) using homogeneous time-resolved fluorescence (HTRF) technology.

Row | SMILES | IC50
1 | N#Cc1ccc2ncn(-c3ncc4nc(-c5cncnc5)n(C5CCOCC5)c4n3)c2c1 [Example 1] | < 100 nM
2 | N#Cc1ccc2ncn(-c3ncc4nc(-c5cncnc5)n([C@@H]5CCOc6ccc(F)cc65)c4n3)c2c1 [Example 2] | < 100 nM
3 | Cc1ccccc1-c1nc2cnc(-n3cnc4ccc(C#N)cc43)nc2n1C1CCOCC1 [Example 3] | 100 to 1000 nM
4 | COc1cccc(-c2nc3cnc(-n4cnc5ccc(C#N)cc54)nc3n2C2CCOCC2)c1 [Example 4] | 100 to 1000 nM
5 | N#Cc1ccc2ncn(-c3ncc4nc(-c5cccnc5)n([C@@H]5CCOc6c(F)cccc65)c4n3)c2c1 [Example 5] | < 100 nM
6 | CC(=O)Nc1ccc(-c2nc3cnc(-n4cnc5ccc(C#N)cc54)nc3n2C2CCOCC2)cc1 [Example 7] | < 100 nM
7 | N#Cc1ccc2ncn(-c3ncc4nc(-c5cccc(O)c5)n(C5CCOCC5)c4n3)c2c1 [Example 8] | < 100 nM
8 | N#Cc1ccc2ncn(-c3ncc4nc(-c5cnc(O)nc5O)n(C5CCOCC5)c4n3)c2c1 [Example 10] | < 100 nM
9 | N#Cc1ccc2ncn(-c3ncc4nc(-c5cncnc5)n([C@@H]5CCOc6ccccc65)c4n3)c2c1 [Example 11] | < 100 nM
10 | Cc1cccc(-c2nc3cnc(-n4cnc5ccc(C#N)cc54)nc3n2C2CCOCC2)c1 [Example 12] | 100 to 1000 nM
11 | CS(=O)(=O)Nc1cccc(-c2nc3cnc(-n4cnc5ccc(C#N)cc54)nc3n2C2CCOCC2)c1 [Example 14] | < 100 nM
12 | N#Cc1ccc2ncn(-c3ncc4nc(-c5cncnc5)n([C@@H]5CCOc6c(F)cc(F)cc65)c4n3)c2c1 [Example 15] | < 100 nM
13 | N#Cc1ccc2ncn(-c3ncc4nc(-c5ccccc5)n(C5CCOCC5)c4n3)c2c1 [Example 16] | < 100 nM
14 | CN(C)c1ncc(-c2nc3cnc(-n4cnc5ccc(C#N)cc54)nc3n2C2CCOCC2)cn1 [Example 17] | < 100 nM
15 | COc1ccccc1-c1nc2cnc(-n3cnc4ccc(C#N)cc43)nc2n1C1CCOCC1 [Example 18] | 100 to 1000 nM
16 | COc1ccc(-c2nc3cnc(-n4cnc5ccc(C#N)cc54)nc3n2C2CCOCC2)cc1 [Example 19] | 100 to 1000 nM
17 | CC(C)Sc1nccc(-c2nc3cnc(-n4cnc5ccc(C#N)cc54)nc3n2[C@@H]2CCOc3c(F)ccc(F)c32)n1 [Example 20] | 100 to 1000 nM

Row | SMILES | IC50
18 | COC1CCN([C@H]2C(C)=Nc3cnc(-n4cnc5ccc(F)cc54)nc32)CC1 [Example 21] | 100 to 1000 nM
19 | CCCc1nc2cnc(-n3cnc4ccc(C#N)cc43)nc2n1C1CCOc2ccc(F)cc21 (centres unmarked) [Example 22] | < 100 nM
20 | CO[C@H]1CC[C@H](n2c(C)nc3cnc(-n4cnc5ccc(C#N)cc54)nc32)CC1 [Example 23] | 100 to 1000 nM
21 | Cc1nc2cnc(-n3cnc4ccc(C#N)cc43)nc2n1C1CCOc2ccc(F)cc21 (centres unmarked) [Example 24] | < 100 nM
22 | Cc1nc2cnc(-n3cnc4ccc(C#N)cc43)nc2n1C1CCOCC1 [Example 25, 3-(8-Methyl-9-(tetrahydro-2H-pyran-4-yl)-9H-purin-2-yl)-3H-benzo[d]imidazole-5-carbonitrile] | < 100 nM
23 | CO[C@H]1CC[C@H](n2c(C)nc3cnc(-n4cnc5ccc(OC(F)(F)F)cc54)nc32)CC1 [Example 26] | 100 to 1000 nM
24 | COCCC(C)n1c(-c2c[nH]c3ccccc23)nc2cnc(-n3cnc4ccc(F)cc43)nc21 (centres unmarked) [Example 27] | 100 to 1000 nM
25 | Oc1cccc(-c2nc3cnc(-n4cnc5ccc(F)cc54)nc3n2[C@@H]2CCOc3c(F)cccc32)c1 [Example 28] | 100 to 1000 nM
26 | CO[C@H]1CC[C@H](n2c(-c3cncnc3)nc3cnc(-n4cnc5ccc(Cl)cc54)nc32)CC1 [Example 29] | 100 to 1000 nM
27 | CC(C)(C)c1nc2cnc(-n3cnc4ccc(F)cc43)nc2n1C1CCOCC1 [Example 34] | < 100 nM
28 | Oc1cccc(-c2nc3cnc(-n4cnc5ccc(Cl)cc54)nc3n2C2CCOCC2)c1 [Example 40] | < 100 nM
29 | Nc1nccc(-c2nc3cnc(-n4cnc5ccc(Cl)cc54)nc3n2C2CCOCC2)n1 [Example 43] | < 100 nM
30 | Fc1ccc2ncn(-c3ncc4nc(-c5ccncc5)n([C@@H]5CCOc6c(F)cccc65)c4n3)c2c1 [Example 49] | < 100 nM
31 | Fc1ccc2ncn(-c3ncc4nc(-c5cncnc5)n([C@@H]5CCOc6c(F)cccc65)c4n3)c2c1 [Example 55] | < 100 nM
32 | Fc1ccc2ncn(C3N=c4c(nc(-c5ccnc6ccccc56)n4C4CCOCC4)=CN3)c2c1 (centres unmarked) [Example 56] | > 1000 nM
33 | Clc1ccc2ncn(-c3ncc4nc(-c5cncnc5)n(C5CCOCC5)c4n3)c2c1 [Example 65] | < 100 nM

Results, then the compound that gave them:

Row | IC50 | SMILES
34 | < 100 nM | N#Cc1ccc2ncn(-c3ncc4nc(-c5cnc(N)nc5)n(C5CCOCC5)c4n3)c2c1 [Example 9]
35 | 100 to 1000 nM | Fc1ccc2ncn(-c3ncc4nc(-c5cnc[nH]5)n(C5CCOCC5)c4n3)c2c1 [Example 30]
36 | 100 to 1000 nM | COC(=O)c1cccc(-c2nc3cnc(-n4cnc5ccc(F)cc54)nc3n2C2CCOCC2)c1 [Example 31]
37 | < 100 nM | Fc1ccc2ncn(-c3ncc4nc(-c5ccncc5)n(C5CCOCC5)c4n3)c2c1 [Example 32]
38 | 100 to 1000 nM | Fc1ccc2ncn(-c3ncc4nc(-c5ncc[nH]5)n(C5CCOCC5)c4n3)c2c1 [Example 33, 2-(6-Fluoro-1H-benzo[d]imidazol-1-yl)-8-(1H-imidazol-2-yl)-9-(tetrahydro-2H-pyran-4-yl)-9H-purine]
39 | < 100 nM | Fc1ccc2ncn(-c3ncc4nc(-c5ccco5)n(C5CCOCC5)c4n3)c2c1 [Example 35]
40 | < 100 nM | Fc1ccc2ncn(-c3ncc4nc(-c5ccc(Br)nc5)n(C5CCOCC5)c4n3)c2c1 [Example 36]
41 | < 100 nM | Fc1ccc2ncn(-c3ncc4nc(-c5cccnc5)n(C5CCOCC5)c4n3)c2c1 [Example 37]
42 | < 100 nM | Fc1ccc2ncn(-c3ncc4nc(-c5cncnc5)n(C5CCOCC5)c4n3)c2c1 [Example 38]
43 | < 100 nM | Cn1cncc1-c1nc2cnc(-n3cnc4ccc(F)cc43)nc2n1C1CCOCC1 [Example 39]
44 | > 1000 nM | Cc1cccc(-c2nc3cnc(-n4cnc5ccc(F)cc54)nc3n2C2CCOCC2)n1 [Example 41]
45 | 100 to 1000 nM | Oc1ccccc1-c1nc2cnc(-n3cnc4ccc(F)cc43)nc2n1C1CCOCC1 [Example 44]
46 | < 100 nM | O=C(O)c1cccc(-c2nc3cnc(-n4cnc5ccc(F)cc54)nc3n2C2CCOCC2)c1 [Example 45]
47 | < 100 nM | Fc1ccc2ncn(-c3ncc4nc(-c5ccc(F)nc5)n(C5CCOCC5)c4n3)c2c1 [Example 46]
48 | < 100 nM | Fc1ccc2ncn(-c3ncc4nc(-c5ccc(Cl)nc5)n(C5CCOCC5)c4n3)c2c1 [Example 47]
49 | 100 to 1000 nM | Fc1ccc2ncn(-c3ncc4nc(-c5nccs5)n(C5CCOCC5)c4n3)c2c1 [Example 48]
50 | 100 to 1000 nM | Cn1cccc1-c1nc2cnc(-n3cnc4ccc(F)cc43)nc2n1C1CCOCC1 [Example 50]
51 | < 100 nM | Fc1ccc2ncn(-c3ncc4nc(-c5ccc(C(F)(F)F)nc5)n(C5CCOCC5)c4n3)c2c1 [Example 51]
52 | 100 to 1000 nM | Cc1ccc(-c2nc3cnc(-n4cnc5ccc(F)cc54)nc3n2C2CCOCC2)o1 [Example 52]
53 | < 100 nM | Nc1nccc(-c2nc3cnc(-n4cnc5ccc(F)cc54)nc3n2C2CCOCC2)n1 [Example 53]
54 | 100 to 1000 nM | Oc1ccc(-c2nc3cnc(-n4cnc5ccc(F)cc54)nc3n2C2CCOCC2)cc1 [Example 54]
55 | > 1000 nM | Fc1ccc2ncn(-c3ncc4nc(-c5cccc(Br)c5)n(C5CCOCC5)c4n3)c2c1 [Example 57]
56 | > 1000 nM | Fc1ccc2ncn(-c3ncc4nc(-c5cccc(OC(F)(F)F)c5)n(C5CCOCC5)c4n3)c2c1 [Example 58]
57 | < 100 nM | Nc1ncc(-c2nc3cnc(-n4cnc5ccc(F)cc54)nc3n2C2CCOCC2)cn1 [Example 59]
58 | 100 to 1000 nM | Fc1ccc2ncn(-c3ncc4nc(-c5cccc(Cl)c5)n(C5CCOCC5)c4n3)c2c1 [Example 60]
59 | 100 to 1000 nM | O=c1ccc(-c2nc3cnc(-n4cnc5ccc(F)cc54)nc3n2C2CCOCC2)c[nH]1 [Example 61]
60 | < 100 nM | Fc1ccc2ncn(-c3ncc4nc(-c5ccc[nH]5)n(C5CCOCC5)c4n3)c2c1 [Example 62]
61 | < 100 nM | COc1ccc(-c2nc3cnc(-n4cnc5ccc(F)cc54)nc3n2C2CCOCC2)cn1 [Example 63]
62 | 100 to 1000 nM | Fc1ccc2ncn(-c3ncc4nc(-c5ccc(Br)cn5)n(C5CCOCC5)c4n3)c2c1 [Example 64]
